The term solubility (kinetic) denotes the concentration staying in solution when a stock, usually in DMSO, is diluted into the medium.

Results on 75 molecules are retold here after PubChem BioAssay AID1996.

Values after ≈ are worked out from the molar mass of the structure shown.

The conditions of the series: buffer; pH 7.4; 200.0 µM.
In turn, `Cc1cc([N+](=O)[O-])nn1CC(=O)NCc1ccccc1` gave a solubility (kinetic) of more than 0.0411 mg/mL.

`COC(=O)Nc1ccc2c(c1)Nc1ccccc1CC2` gave a kinetic solubility of 0.0005 mg/mL (≈ 1.86 µM).

`CC(C)N(CCC#N)C(=O)Nc1ccc2c(c1)CCO2` displayed a kinetic solubility of more than 0.041 mg/mL.

Molecule `Br.CCC1CC(CSC(=N)N)OC1=O` (stereo not given) showed a solubility (kinetic) of more than 0.0425 mg/mL.

`CCOC(=O)C1CCN(S(=O)(=O)c2c(C)noc2C)CC1`: the kinetic solubility was found to be 0.0268 mg/mL (≈ 84.7 µM).

In turn, `Cc1ccc2sc(N(CCN(C)C)C(=O)c3ccc4ccccc4c3)nc2c1C.Cl` displayed a solubility (kinetic) of 0.0008 mg/mL.

The molecule `Cn1cc(-c2cccc(C(F)(F)F)c2)cc(C#N)c1=O` displayed a kinetic solubility of 0.0076 mg/mL (≈ 27.3 µM).

Molecule `CC1(NC(=S)Nc2ccccc2)CCS(=O)(=O)C1` (stereo not given) had a solubility (kinetic) of more than 0.0427 mg/mL.

In turn, `O=S(=O)(Nc1ccc2c(c1)OCCO2)c1cccc(F)c1` showed a kinetic solubility of more than 0.0464 mg/mL.

In turn, `CCN(CC)C(=O)C1CCCN(C/C=C/c2ccccc2[N+](=O)[O-])C1` (stereo not given) gave a kinetic solubility of 0.0417 mg/mL (≈ 121 µM).

Take `Cc1cccc(NC(=O)c2cccc(N3C(=O)CCC3=O)c2)c1`: the kinetic solubility was more than 0.0463 mg/mL.

For `COc1ccc(C)cc1NC1=NC(C)(C)CS1`, the solubility (kinetic) was 0.0361 mg/mL (≈ 144 µM).

Turning to `Cc1ccc(CNc2ccc3c(c2)ncn3C(C)C)cc1`, the kinetic solubility was more than 0.0419 mg/mL.

For `O=C(Nc1cccc(C(F)(F)F)c1)c1scc2c1OCCO2`, the solubility (kinetic) is less than 0.0007 mg/mL.

`CC(C)c1ccc(NC(=O)NCc2ccc3c(c2)OCO3)cc1` came in with a solubility (kinetic) of less than 0.0003 mg/mL.

`O=C(NCCCNC(=O)c1cnccn1)c1ccc(Cl)cc1` gave a kinetic solubility of more than 0.0478 mg/mL.

Regarding `COc1ccc(NC(=O)C2CC(=O)N(c3ccccc3C)C2)c(OC)c1` (stereo not given), the solubility (kinetic) is more than 0.0532 mg/mL.

`Cc1ccc(/C=C(\NC(=O)c2ccccc2)C(=O)N2CCCCC2)cc1` returned a solubility (kinetic) of 0.0399 mg/mL (≈ 115 µM).

In turn, `CCC(c1ccc(C)cc1)N1C(=O)C2C3CCC(O3)C2C1=O` (stereo not given) came in with a kinetic solubility of 0.0411 mg/mL (≈ 137 µM).

`Cc1ccc(C(=O)OCC(=O)NCc2ccco2)cc1C` showed a kinetic solubility of 0.0128 mg/mL (≈ 44.6 µM).

As for `COCc1cc(C)nc(SCc2ccccc2Cl)c1C#N`, the solubility (kinetic) stood at 0.0003 mg/mL (≈ 0.941 µM).

`O=C(Cc1ccc(Br)cc1)OCC(=O)N1CCCCCC1` yielded a kinetic solubility of more than 0.0531 mg/mL.

The molecule `CCOC(=O)c1sc(Nc2ccc(Br)cc2)nc1C` yielded a solubility (kinetic) of 0.0012 mg/mL (≈ 3.52 µM).

In turn, `CC(=O)NCCc1nc2cc(NC(=O)c3ccc(Cl)cc3)ccc2n1C` yielded a kinetic solubility of 0.0357 mg/mL (≈ 96.3 µM). This solubility kinetic lies about 30-fold higher than the previous one.

Molecule `O=C(NCC(c1ccco1)N1CCOCC1)C1CCCCC1` (stereo not given) had a solubility (kinetic) of more than 0.046 mg/mL.

As to `Cc1c(-c2nc(-c3ccncc3)no2)cccc1[N+](=O)[O-]`, the solubility (kinetic) came to 0.0017 mg/mL (≈ 6.02 µM).

With `O=C(Cn1ncc(Cl)c(Cl)c1=O)NC1CCCCC1`, the kinetic solubility is more than 0.0456 mg/mL.

`C[C@H](NC(=O)c1ccc(C(C)(C)C)cc1)C(=O)N1CCOCC1` showed a kinetic solubility of more than 0.0478 mg/mL.

As to `COc1ccc(C(=O)NCC(=O)OCC(=O)NCc2cccs2)cc1`, the solubility (kinetic) was more than 0.0544 mg/mL.

`COc1ccc2[nH]c(C(=O)N(Cc3ccccn3)Cc3ccccn3)cc2c1` registered a solubility (kinetic) of more than 0.0559 mg/mL.

The molecule `CC1(C)CC(=O)c2sc(NC(=O)c3ccccc3)nc2C1` came in with a kinetic solubility of 0.0226 mg/mL (≈ 75.2 µM).

For the molecule `O=C(NCCCO)C(=O)NCc1ccncc1`, the kinetic solubility was more than 0.0356 mg/mL.

The molecule `CS(=O)(=O)N1CCC(C(=O)NCc2ccc(F)cc2)CC1` had a kinetic solubility of more than 0.0472 mg/mL.

In the case of `Cc1cccc(NC2=NCCCS2)c1`, the kinetic solubility is more than 0.0309 mg/mL.

With `Cn1c(=O)n(C)c2cc3[nH]cnc3cc21`, the kinetic solubility is more than 0.0303 mg/mL.

`COc1ccccc1N1CCN(/N=C/c2ccccc2C(=O)O)CC1`: the solubility (kinetic) was more than 0.0509 mg/mL.

`Cc1cccc(C)c1Nc1nnc(SCC(=O)NCCCN2CCCC2=O)s1`: the kinetic solubility is more than 0.0629 mg/mL.

For the molecule `COc1ccc(C(=O)CC(=O)C(=O)Nc2ccccc2OC)cc1`, the solubility (kinetic) was found to be 0.0162 mg/mL (≈ 49.5 µM).

`COc1ccc(C2NC(=O)CCC2[N+](=O)[O-])cc1` (stereo not given) displayed a kinetic solubility of more than 0.0375 mg/mL.

For the molecule `CN(CC(=O)Nc1ccc(Cl)cc1)C(=O)CCC1CCCC1`, the solubility (kinetic) worked out at 0.0004 mg/mL (≈ 1.24 µM).

`Cc1ccnc(NC(=O)c2oc3ccccc3c2C)c1` had a solubility (kinetic) of 0.0036 mg/mL (≈ 13.5 µM).

Consider `Cc1ccc(NC(=O)c2cc3ccccc3cc2O)cc1`, for which the solubility (kinetic) is less than 0.0006 mg/mL.

Consider `CSc1cccc(N=C2C(=O)Nc3ccccc32)c1`, for which the kinetic solubility amounted to 0.033 mg/mL (≈ 123 µM).

`O=C(COC(=O)/C=C/c1ccc(Cl)c(Cl)c1)NC1CC1`: the kinetic solubility was 0.0044 mg/mL (≈ 14 µM). Against the preceding molecule, the solubility kinetic is about 7.5-fold lower.

The molecule `CCOC(=O)/C(C#N)=C\c1ccc(OC)c(OC)c1` displayed a solubility (kinetic) of 0.0024 mg/mL (≈ 9.19 µM).

In turn, `O=C(C1CCCN(Cc2ccccc2F)C1)N1CCCC1.O=C(O)C(=O)O` (stereo not given) returned a solubility (kinetic) of 0.0432 mg/mL.

Regarding `Cc1cccc2cc(C#N)c(N3CCC(O)CC3)nc12`, the kinetic solubility was found to be 0.0343 mg/mL (≈ 128 µM).

As for `O=C(CC(=O)c1ccccc1)Nc1ccccn1`, the solubility (kinetic) was more than 0.036 mg/mL.

Molecule `CN(C)C(=O)Oc1ccc(Br)c2ccccc12` had a solubility (kinetic) of 0.035 mg/mL (≈ 119 µM).

Regarding `COc1ccc(NC(=O)CN(C)CC(=O)N2CCCCCC2)cc1`, the kinetic solubility is 0.049 mg/mL (≈ 147 µM).

For `CN(C(=O)Nc1cnccc1C(F)(F)F)C1CCCCC1`, the solubility (kinetic) came out at 0.0411 mg/mL (≈ 136 µM). This solubility kinetic and that of the molecule before are within 1.5-fold of each other.

For the molecule `O=C(Nc1ccc(Cl)cn1)c1ccc2[nH]c(=O)c(=O)[nH]c2c1`, the kinetic solubility turned out to be 0.0117 mg/mL (≈ 36.9 µM).

In the case of `Cc1ccc(C2(c3noc(CN(C)CC4CCCCO4)n3)CCCC2)cc1` (stereo not given), the kinetic solubility is 0.0212 mg/mL (≈ 57.4 µM).

Turning to `CN(C)C(=O)Oc1ccc2c(c1)O/C(=C\c1cccc([N+](=O)[O-])c1)C2=O`, the solubility (kinetic) was less than 0.0004 mg/mL.

The molecule `CCOC(=O)c1cn2c(C)cccc2n1` returned a kinetic solubility of more than 0.0306 mg/mL.

The molecule `O=C(Nc1cccc2ncccc12)c1ccccc1[N+](=O)[O-]` gave a solubility (kinetic) of 0.0366 mg/mL (≈ 125 µM).

On to `Cc1ccc2nc(C)c3c(c2c1)N(c1ccccc1)CC3`, for which the solubility (kinetic) is more than 0.0412 mg/mL.

`O=C(Nc1ccncc1)c1ccc(Cl)c([N+](=O)[O-])c1`: the kinetic solubility is more than 0.0417 mg/mL.

`COc1ccc2oc(=O)c(C(=O)NCc3ccco3)cc2c1` returned a kinetic solubility of 0.0048 mg/mL (≈ 16 µM).

`O=C(Nc1cccc(Cl)c1)c1ccc2c(c1)OCCO2` showed a kinetic solubility of 0.0063 mg/mL (≈ 21.7 µM). This solubility kinetic and that of the molecule before are within 1.5-fold of each other.

Molecule `COc1cc(SC)ccc1C(=O)Nc1cccc(C)n1` displayed a kinetic solubility of 0.0034 mg/mL (≈ 11.8 µM).

Molecule `O=C1NC2=C(C(=O)OC2)C(c2ccc(OC(F)(F)F)cc2)N1` (stereo not given) had a kinetic solubility of more than 0.0471 mg/mL.

In turn, `CC(NC(=O)COc1ccccc1)C(c1cccs1)N1CCCC1` (stereo not given) showed a solubility (kinetic) of more than 0.0517 mg/mL.

Take `Cn1c(CN2CCCCC2)nc2cc([N+](=O)[O-])ccc21`: the solubility (kinetic) was more than 0.0411 mg/mL.

On to `CCCCOc1cccc(C(=O)Nc2ccccc2N2CCCC2)c1`, for which the kinetic solubility came to 0.0012 mg/mL (≈ 3.55 µM).

The molecule `COCCCn1c(SCC(=O)NC2CCCC2)nnc1-c1ccncc1` had a kinetic solubility of more than 0.0563 mg/mL.

Regarding `CCC(CC)NC(=O)CO/N=C/c1ccc(Cl)cc1Cl`, the kinetic solubility stood at 0.003 mg/mL (≈ 9.46 µM).

`Cn1cccc1C(=O)OCc1ccc(C(C)(C)C)cc1` yielded a kinetic solubility of 0.0007 mg/mL (≈ 2.58 µM). Compared with the last molecule, the solubility kinetic is about 4.3-fold lower.

As to `O=C(CN1CCCCCC1)Nc1cccc([N+](=O)[O-])c1`, the solubility (kinetic) was more than 0.0416 mg/mL.

With `CCCC(=O)Nc1ccc2c(c1)Cc1ccccc1-2`, the kinetic solubility was determined as 0.0015 mg/mL (≈ 5.97 µM).

`Cc1c(Cl)ccc2c(C(N)=O)cc(-c3ccccn3)nc12` came in with a solubility (kinetic) of 0.0002 mg/mL (≈ 0.672 µM).

In the case of `Oc1ccc(Nc2nc(-c3ccccc3)nc3ccccc23)cc1`, the kinetic solubility was 0.0023 mg/mL (≈ 7.34 µM). Compared with the last molecule, the solubility kinetic is about 12-fold higher.

The molecule `S=C(Nc1ccc(Oc2ccccc2)cc1)N1CCOCC1` displayed a kinetic solubility of 0.0428 mg/mL (≈ 136 µM).

Turning to `Cc1ccc(NC(=O)CSc2nc(N)cc(=O)[nH]2)cc1S(=O)(=O)N1CCCCC1`, the solubility (kinetic) was found to be 0.0466 mg/mL (≈ 107 µM).

In turn, `C/C(CC(=O)Nc1cccc(F)c1)=N\NC(=O)c1ccncc1` showed a solubility (kinetic) of more than 0.0471 mg/mL.
